Patent US20200069644A1, “NOVEL USE OF A FORMYL PEPTIDE RECEPTOR 2/ LIPOXIN A4 RECEPTOR (FPR2/ALX) AGONIST FOR TREATMENT OF HEART FAILURE” (BRISTOL- MYERS SQUIBB COMPANY, priority 2017, published 2020)

Test system: myocardial infarction in mice
Assay: Mouse model of permanent coronary artery occlusion, 28 days
Format: in vivo
Description: Permanent coronary artery occlusion was carried out in mice using a ligature placed around the left anterior descending artery to induce myocardial infarction. Treatment with orally-administered Compound 1 (0.3 and 3 mg/kg; QD) or dosing solution without compound (QD, referred to as vehicle) was initiated 24 hours following myocardial infarction. Mice subjected to thoracotomy but not infarcted were included as surgical “sham” controls. Mice were evaluated 28 days following myocardial infarction to assess structure/function relationships. Hearts were removed from mice for histological processing to measure left ventricular dimensions, infarct areas and infarct collagen composition.
The effect of Compound 1 on left ventricle and infarct scar remodeling was evaluated in a mouse model of permanent coronary artery occlusion. MI was created by permanently ligating the left anterior descending artery with a surgical suture. Treatments (QD, PO) were initiated 24 hours after MI and were continued for 28 days. Treatments consisted of suspension vehicle and Compound 1 at 0.3 mg/kg and 3 mg/kg. A cohort of mice that were subjected to the procedure but were not infarcted were included as a “sham operated” surgical control group. At the end of 28 days of treatment, the hearts were removed for histological evaluation of left ventricle structure and scar structure.
This is a model of ischemic heart disease. Infarct size was measured within the left ventricle (LV) and reported as a percentage of the total left ventricle cross sectional area.

## COc1cc(F)c([C@@H]2CNC(=O)[C@H]2NC(=O)Nc2ccccc2)c(F)c1 [Compound 1, 1-((3S,4R)-4-(2,6-difluoro-4-methoxyphenyl)-2-oxopyrrolidin-3-yl)-3-phenylurea]
0.3 mg/kg PO QD, 28 days
  infarct wall thickness, % of mean thickness of sham: 61%
  reduction of LV chamber area vs. vehicle: 26%
3 mg/kg PO QD, 28 days
  infarct wall thickness, % of mean thickness of sham: 67%
3 mg/kg PO QD, 28 days (trend)
  reduction of LV chamber area vs. vehicle: 24%
3 mg/kg PO QD, 28 days, started 24 h after MI, P<0.01
  reduction in LV anterior wall infarct size vs. vehicle: 55%
Higher dose (3 mg/kg) PO QD, 28 days, P<0.05
  wall thickness difference vs. vehicle: 59%
